# Key:
# Type in all cases: biochemical
# cyclin D2-Cdk4 = target: T1, cyclin D2-Cdk4 (Homo sapiens, UniProt P11802); assay: Cdk4 inhibitory action: cyclin D2-Cdk4 kinase activity, 33P-ATP, RB peptide substrate; conditions: cyclin D2-Cdk4, 50 μM ATP
# T1 construct: made in house; host or cells: insect cell Sf9 (baculovirus)
# Description: First, the cDNA of Cdk4, and the cDNA of a fusion protein of cyclin D2, an activating factor of Cdk4, and glutathione S-transferase, were integrated into a baculovirus expression vector to prepare a recombinant baculovirus. This was co-transfected into insect cell Sf9 to express an active complex of the cyclin D2/glutathione S-transferase fusion protein-Cdk4 at a high level. The cells were recovered and solubilized, then the active complex was adsorbed onto Glutathione Sepharose, and a cyclin D2-Cdk4 complex was recovered using Precision Protease and was purified by HPLC column chromatography [EMBO J., Vol. 15, 7060-7069 (1996)].
# For the measurement of the activity of cyclin D2-Cdk4, a synthetic peptide (Arg-Pro-Pro-Thr-Leu-Ser-Pro-Ile-Pro-His-Ile-Pro-Arg) corresponding to amino acid residue No. 775-787 of RB protein was used as the substrate [EMBO J., Vol. 15, 7060-7069 (1996)].
# The reaction was performed by partially modifying the method of Kitagawa et al. [Oncogene, Vol. 7, 1067-1074 (1992)]. The volume of the reaction solution was 21.1 μL, and the composition of the reaction buffer (R buffer) was 20 mM Tris-hydrochloric acid buffer (pH 7.4)/10 mM magnesium chloride/4.5 mM 2-mercaptoethanol/1 mM ethylene glycol bis(β-aminoethyl ether)-N,N,N′,N′-tetraacetic acid (EGTA). To this reaction buffer, purified cyclin D2-Cdk4, 100 μM of the substrate peptide, 50 μM of non-labeled adenosine triphosphate (ATP), and 1 μCi of [γ-33P]-labeled ATP (2000 to 4000 Ci/mmole) were added to react at 30° C. for 45 minutes. Then, 10 μL of 350 mM phosphate buffer was added to the reaction system to terminate the reaction. The substrate peptide was adsorbed onto P81 paper filter on a 96-well plate, and then washed several times with 75 mM phosphate buffer. The radioactivity of the substrate peptide was measured with a liquid scintillation counter. The [γ-33P]-labeled ATP was purchased from Daiichi Pure Chemicals Co., Ltd.
# Addition of the test compound to the reaction system was carried out by first preparing a dilution series of solutions of the compound in dimethylsulfoxide (DMSO), and adding 1.1 μL of the dilutions. A control was provided by adding 1.1 μL of DMSO to the reaction system.
# A representative compound of the compounds according to the invention was selected, and the IC50 value of this compound for the cyclin D2-Cdk4 activity was determined.
# cyclin A-Cdk2 = target: T2, cyclin A-Cdk2 (Homo sapiens, UniProt P24941); assay: Cdk2 inhibitory action: cyclin A-Cdk2 kinase activity; conditions: cyclin A-Cdk2, 50 μM ATP
# T2 construct: made in house; host or cells: insect cell Sf9 (baculovirus)
# Description: In the same manner as in the case of cyclin D2-Cdk4, the cDNA of Cdk2, and the cDNA of a fusion protein of cyclin A, an activating factor of Cdk2, and glutathione S-transferase, were integrated into a baculovirus expression vector to prepare a recombinant baculovirus. This was co-transfected into insect cell Sf9 to express an active complex of the cyclin A/glutathione S-transferase fusion protein-Cdk2 at a high level. The cells were recovered and solubilized, then the active complex was adsorbed onto Glutathione Sepharose, and a cyclin A-Cdk2 complex was recovered using Precision Protease and was purified by HPLC column chromatography.
# For the measurement of the activity of cyclin A-Cdk2, a synthetic peptide (Ala-Lys-Ala-Lys-Lys-Thr-Pro-Lys-Lys-Ala-Lys-Lys) was used as the substrate.
# (§1) The reaction was performed by partially modifying the method of Kitagawa et al. [Oncogene, Vol. 7, 1067-1074 (1992)]. The volume of the reaction solution was 21.1 μL, and to the R buffer, purified cyclin A-Cdk2, 0.01 mg/mL of the substrate peptide, 50 μM of non-labeled adenosine triphosphate (ATP), and 1 μCi of [γ-33P]-labeled ATP (2000 to 4000 Ci/mmole) were added to react at 30° C. for 30 minutes. Then, 10 μL of 350 mM phosphate buffer was added to the reaction system to terminate the reaction. The substrate peptide was adsorbed onto P81 paper filter on a 96-well plate, and then washed several times with 75 mM phosphate buffer. The radioactivity of the substrate peptide was measured with a liquid scintillation counter.
# Addition of the compound according to the invention to the reaction system was carried out by first preparing a dilution series of solutions of the compound in dimethylsulfoxide (DMSO), and adding 1.1 μL of the dilutions. A control was provided by adding 1.1 μL of DMSO to the reaction system.
# A representative compound of the compounds according to the invention was selected, and the IC50 value of this compound for the cyclin A-Cdk2 activity was determined.
# cyclin T1-Cdk9 = target: T3, cyclin T1-Cdk9 (Homo sapiens, UniProt P50750); assay: Cdk9 inhibitory action: cyclin T1-Cdk9 kinase activity; conditions: cyclin T1-Cdk9, 50 μM ATP
# T3 construct: made in house; host or cells: insect cell Sf9 (baculovirus)
# T3 sequence (P50750 whole entry): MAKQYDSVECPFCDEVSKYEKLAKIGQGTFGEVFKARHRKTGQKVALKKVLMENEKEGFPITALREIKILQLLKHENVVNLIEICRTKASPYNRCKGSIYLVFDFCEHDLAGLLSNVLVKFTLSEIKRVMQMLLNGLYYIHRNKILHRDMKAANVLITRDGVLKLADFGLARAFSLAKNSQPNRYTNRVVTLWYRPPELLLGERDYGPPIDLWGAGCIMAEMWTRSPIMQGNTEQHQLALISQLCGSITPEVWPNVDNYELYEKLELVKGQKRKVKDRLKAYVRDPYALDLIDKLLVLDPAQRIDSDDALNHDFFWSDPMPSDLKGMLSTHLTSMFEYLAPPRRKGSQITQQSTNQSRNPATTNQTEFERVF
# T3 sequence (O60563 whole entry partner): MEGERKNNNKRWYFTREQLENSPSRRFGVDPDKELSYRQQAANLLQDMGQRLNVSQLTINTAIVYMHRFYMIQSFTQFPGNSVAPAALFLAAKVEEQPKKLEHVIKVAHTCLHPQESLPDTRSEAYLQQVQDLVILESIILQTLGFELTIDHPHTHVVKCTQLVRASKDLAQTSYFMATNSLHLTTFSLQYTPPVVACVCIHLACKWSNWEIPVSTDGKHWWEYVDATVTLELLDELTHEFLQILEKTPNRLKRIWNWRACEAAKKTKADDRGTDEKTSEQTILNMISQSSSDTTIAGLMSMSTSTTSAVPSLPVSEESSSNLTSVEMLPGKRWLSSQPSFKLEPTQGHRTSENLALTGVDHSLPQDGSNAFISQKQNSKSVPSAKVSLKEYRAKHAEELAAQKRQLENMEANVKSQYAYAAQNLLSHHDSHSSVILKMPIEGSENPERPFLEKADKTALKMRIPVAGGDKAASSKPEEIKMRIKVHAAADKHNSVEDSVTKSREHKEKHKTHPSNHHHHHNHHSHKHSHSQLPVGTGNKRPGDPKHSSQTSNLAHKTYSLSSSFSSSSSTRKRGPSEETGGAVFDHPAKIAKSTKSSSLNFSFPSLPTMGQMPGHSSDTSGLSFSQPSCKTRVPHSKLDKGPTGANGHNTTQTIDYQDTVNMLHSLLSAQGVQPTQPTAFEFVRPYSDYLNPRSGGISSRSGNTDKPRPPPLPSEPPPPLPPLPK
# Description: The cDNA of Cdk9, and the cDNA of a fusion protein of cyclin T1, an activating factor of Cdk9, and glutathione S-transferase, were integrated into a baculovirus expression vector to prepare a recombinant baculovirus. This was co-transfected into insect cell Sf9 to express an active complex of the cyclin T1/glutathione S-transferase fusion protein-Cdk9 at a high level. The cells were recovered and solubilized, and the active complex was adsorbed onto Glutathione Sepharose, and then was purified by elution with 10 mM reductive glutathione. The solution containing the eluted active complex was dialyzed against B buffer (composition: 20 mM Tris-hydrochloric acid buffer (pH 7.4)/200 mM sodium chloride/0.1% Tween-20/10 mM 2-mercaptoethanol/1 mM dithiothreitol/10% glycerol) to remove the reductive glutathione.
# For the measurement of the activity of cyclin T1-Cdk9, a synthetic peptide ([…] was used as the substrate.
# as §1, with “cyclin T1-Cdk9, 25 μM” for “cyclin A-Cdk2, 0.01 mg/mL”, “and 0.5” for “and 1”, “for 20” for “for 30”
# Addition of the compound according to the invention to the reaction system was carried out by first preparing a dilution series of solutions of the compound in dimethylsulfoxide (DMSO), and adding […] of the dilutions. A control was provided by adding 1.1 μL of DMSO to the reaction system.
# A representative compound of the compounds according to the invention was selected, and the IC50 value (nM) of this compound for the cyclin T1-Cdk9 activity was determined.
# T1 sequence (P11802 whole entry): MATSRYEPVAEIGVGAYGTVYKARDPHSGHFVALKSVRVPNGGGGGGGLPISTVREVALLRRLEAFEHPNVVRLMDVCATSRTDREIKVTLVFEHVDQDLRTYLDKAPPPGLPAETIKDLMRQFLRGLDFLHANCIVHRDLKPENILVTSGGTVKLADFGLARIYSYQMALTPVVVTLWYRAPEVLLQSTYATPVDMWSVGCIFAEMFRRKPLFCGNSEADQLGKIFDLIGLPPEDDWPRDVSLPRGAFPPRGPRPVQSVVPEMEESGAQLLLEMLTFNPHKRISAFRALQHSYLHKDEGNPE
# T1 sequence (P30279 whole entry partner): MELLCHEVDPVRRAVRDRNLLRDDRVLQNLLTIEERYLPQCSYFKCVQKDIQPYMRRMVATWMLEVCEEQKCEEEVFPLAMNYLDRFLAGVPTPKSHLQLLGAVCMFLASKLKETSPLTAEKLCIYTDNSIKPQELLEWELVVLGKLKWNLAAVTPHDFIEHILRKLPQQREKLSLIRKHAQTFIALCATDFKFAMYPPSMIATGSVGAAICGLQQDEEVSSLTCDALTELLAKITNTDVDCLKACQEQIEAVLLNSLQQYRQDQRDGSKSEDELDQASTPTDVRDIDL
SMILES,IC50 (cyclin D2-Cdk4),IC50 (cyclin A-Cdk2),IC50 (cyclin T1-Cdk9)
"Cc1cc(-c2cnc(Nc3cnc(CN4CCC(N(C)C)C4)cn3)s2)nc(OC2CCCCC2)n1 (centres unmarked) [Example 13, 5-[2-(cyclohexyloxy)-6-methyl-4-pyrimidinyl]-2-[5-(3-dimethylamino-1-pyrrolidinyl)methyl-2-pyrazinyl]amino-1,3-thiazole]",6 nM,850 nM,430 nM
"Cc1cc(-c2cnc(Nc3cnc(CN4CCN(C)CC4)cn3)s2)nc(OC2CCCCC2)n1 [Example 1, 5-[2-(cyclohexyloxy)-6-methyl-4-pyrimidinyl]-2-[5-(4-methyl-1-piperazinyl)methyl-2-pyrazinyl]amino-1,3-thiazole]",9.2 nM,1700 nM,2500 nM
"Cc1cc(-c2cnc(Nc3cnc(CN4CCC(N(C)C)C4)cn3)s2)nc(SC2CCCCC2)n1 (centres unmarked) [Example 94, 5-[2-(cyclohexylthio)-6-methyl-4-pyrimidinyl]-2-[5-(3-dimethylamino-1-pyrrolidinyl)methyl-2-pyrazinyl]amino-1,3-thiazole]",3.9 nM,1700 nM,270 nM
"Cc1cc(-c2cnc(Nc3cnc(CN4CCCC4)cn3)s2)nc(SC2CCCCC2)n1 [Example 93, 5-[2-(cyclohexylthio)-6-methyl-4-pyrimidinyl]-2-[5-(1-pyrrolidinyl)methyl-2-pyrazinyl]amino-1,3-thiazole]",4.2 nM,480 nM,230 nM
"Cc1cc(-c2cnc(Nc3cnc(CN4CCN(C)CC4)cn3)s2)nc(NC2CCCCC2)n1 [Example 55, 5-[2-(cyclohexylamino)-6-methyl-4-pyrimidinyl]-2-[5-(4-methyl-1-piperazinyl)methyl-2-pyrazinyl]amino-1,3-thiazole]",3.8 nM,1900 nM,1400 nM

# Continued, values first:
IC50 (cyclin D2-Cdk4),IC50 (cyclin A-Cdk2),IC50 (cyclin T1-Cdk9),SMILES
9 nM,1600 nM,650 nM,"CC(=O)N1CCN(Cc2ccc(Nc3ncc(-c4cc(C)nc(OC5CCCCC5)n4)s3)nc2)CC1 [Example 125, 5-[2-(cyclohexyloxy)-6-methyl-4-pyrimidinyl]-2-[5-(4-acetyl-1-piperazinyl)methyl-2-pyridyl]amino-1,3-thiazole]"
5.8 nM,600 nM,140 nM,"Cc1cc(-c2cnc(Nc3cnc(CNC(C)C)cn3)s2)nc(SC2CCCCC2)n1 [Example 96, 5-[2-(cyclohexylthio)-6-methyl-4-pyrimidinyl]-2-[5-(isopropylamino)methyl-2-pyrazinyl]amino-1,3-thiazole]"
7.2 nM,4500 nM,1100 nM,"Cc1cc(-c2cnc(Nc3ccc(CN4CCC[C@H]4CO)cn3)s2)nc(NC2CCCCC2)n1 [Example 137, (2S)-5-[2-(cyclohexylamino)-6-methyl-4-pyrimidinyl]-2-[5-(2-hydroxymethyl-1-pyrrolidinyl)methyl-2-pyridyl]amino-1,3-thiazole]"
5.7 nM,1000 nM,640 nM,"Cc1cc(-c2cnc(Nc3cnc(CN4CCN(C)CC4)cn3)s2)nc(Sc2ccccc2Cl)n1 [Example 109, 5-[2-(2-chlorophenylthio)-6-methyl-4-pyrimidinyl]-2-[5-(4-methyl-1-piperazinyl)methyl-2-pyrazinyl]amino-1,3-thiazole]"
6 nM,,98 nM,"Cc1cc(-c2cnc(Nc3cnc(CNCCO)cn3)s2)nc(SC2CCCCC2)n1 [Example 99, 5-[2-(cyclohexylthio)-6-methyl-4-pyrimidinyl]-2-[5-(2-hydroxyethylamino)methyl-2-pyrazinyl]amino-1,3-thiazole]"

# From patent publication US7709475B2, “Selective inhibitors against Cdk4 and Cdk6 having aminothiazole skeleton” (Banyu Pharmaceutical Co., Ltd., priority 2004, dated 2010)
